pEC50: −log10 of the molar value. Values joined by “and” are separate entries in the source; they are usually repeats but may differ in a detail not shown here. Identical values can stand only once. Like-named read-outs stand apart in the source and are kept apart here.
Key:
[1] = system: latent HIV in total CD4+ T cells; assay: microbe, parasite or virus in culture; format: cell-based, HIV-1; details: for pEC50: Human immunodeficiency virus 1, CD4+ T
Protocol: Peripheral blood mononuclear cells and CD4^+ T cells used for evaluating PKC agonist and inhibitor molecules were isolated from leukopaks of selected participants as described previously. Isolated CD4^+ T cells (5×10^6 cells/well) were added to 24-well tissue culture plates in 2.5 mL of RPMI medium containing 100 nM each of elvitegravir and efavirenz. Cells were stimulated with DMSO (vehicle control) or the indicated concentrations of PKC agonist molecules. Cells were pretreated with PKC isoform inhibitors (Selleck Chemicals) for 1 hour before addition of PKC agonist at indicated concentrations and maintained at 37 °C, 5% CO2 for 3 days. Cell supernatants from each well were analyzed using the Cobas […] system for quantification of HIV-1 RNA using the HIV-1 test v2.0 kit (Roche Diagnostics).

PKC-ε = biological target: T1, PKC-ε (Homo sapiens, UniProt Q02156); assay: PKC isoform translocation in A549-tGFP cells; format: cell-based; set-up: host or cells: A549; details: for pEC50: A549-tGFP cells, 60 minutes; for ε selectivity, PKC-ε: EC50 of PKC-ε divided by EC50 of PKC-ε
T1 sequence (Q02156 1-737): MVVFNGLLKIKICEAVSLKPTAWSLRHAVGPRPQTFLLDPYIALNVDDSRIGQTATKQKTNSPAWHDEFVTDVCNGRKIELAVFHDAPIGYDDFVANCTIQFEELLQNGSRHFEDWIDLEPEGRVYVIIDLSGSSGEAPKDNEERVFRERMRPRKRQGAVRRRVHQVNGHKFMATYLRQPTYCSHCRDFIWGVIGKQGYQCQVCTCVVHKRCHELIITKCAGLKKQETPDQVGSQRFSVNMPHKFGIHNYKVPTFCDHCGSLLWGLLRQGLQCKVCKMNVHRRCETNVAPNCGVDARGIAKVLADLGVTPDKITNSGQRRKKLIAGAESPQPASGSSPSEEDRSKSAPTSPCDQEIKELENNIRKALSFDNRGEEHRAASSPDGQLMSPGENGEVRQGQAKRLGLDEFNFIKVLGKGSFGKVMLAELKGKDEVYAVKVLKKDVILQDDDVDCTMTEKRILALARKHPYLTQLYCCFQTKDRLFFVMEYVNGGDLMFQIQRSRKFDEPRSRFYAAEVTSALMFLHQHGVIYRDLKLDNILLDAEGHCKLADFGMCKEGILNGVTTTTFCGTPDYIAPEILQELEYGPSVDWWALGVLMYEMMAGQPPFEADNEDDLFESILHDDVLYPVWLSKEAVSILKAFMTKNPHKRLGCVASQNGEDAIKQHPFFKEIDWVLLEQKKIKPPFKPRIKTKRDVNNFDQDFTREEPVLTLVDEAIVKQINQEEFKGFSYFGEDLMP
Protocol: Using these findings we embarked on new designs for DAG-lactones with additional substituents from the ester moiety in combination with a few olefin substituents. A description of this effort is reported elsewhere.
Cellular translocation of PKC isoforms upon activation was determined in 8 A549 cell lines, each expressing a single PKC isoform fused to tGFP (PhenoVista Biosciences). Cells were plated in 384-well plates (80 μL/well) at 10^5 cells/mL in RPMI with 10% FBS and rested overnight. PKC agonist(s) were serially diluted at 1:3 steps in DMSO and added to the cells. After 60 minutes in an incubator at 37 °C, 5% CO2, cells were stained with Hoechst-33342 and fixed with 2% paraformaldehyde for 30 minutes at 4 °C. Cells were then stained with wheat germ agglutinin conjugated to AlexaFluor647 (WGA-647) for 10 minutes at 4 °C, washed to remove excess dye and imaged with Cellomics Array Scan (Thermo Fisher) at room temperature (RT). Images were analyzed using Cellomics automated image analysis algorithm. Plasma membrane translocation was quantified using the ratio between the average fluorescence in the areas at the cell edge defined by WGA-647 and the cytoplasm region.

Plasma PK in rats = format: in vivo, rat; details: slow IV infusion
Protocol: Wild-type male Sprague Dawley (Hsd: Sprague Dawley SD) rats (8–15 weeks old) were sourced from the Covance stock colony for conduct of in vivo studies at Covance Laboratories Inc. (Madison, Wisconsin, USA). Rats were administered a single dose of vehicle control (n = 3), or 0.1, 0.3, 1, or 3 mg/kg C-232A (n = 6), or 10 mg/kg C-233 by intravenous infusion over 30 minutes. Blood samples were collected through 24 hours postdose. Samples for PK measurement of C-232A concentration were processed to plasma and shipped to Gilead Sciences (Foster City, California, USA). Samples were analyzed at Covance Laboratories for hematology and clinical chemistry panels. At unscheduled necropsy (3 mg/kg C-232A), tissues were preserved in 10% neutral-buffered formalin, embedded in paraffin, mounted on slides, and stained with hematoxylin and eosin. Tissues were then evaluated independently (Experimental Pathology Laboratories, Inc).
Rat and rhesus plasma samples (20 µL aliquot of each) were treated with 100 µL acetonitrile containing a generic internal small-molecule standard. […] The descriptive PK parameters were analyzed using noncompartmental analysis with Phoenix WinNonlin software (version 8.2, Certara USA, Inc.). The area under the plasma concentration–time curve (AUClast) values were calculated using the linear trapezoid method.

[2] = system: platelets (CD62P+) and CD4+ T cells (CD69+) in whole blood; assay: In vitro whole blood platelet and CD4+ T-cell activation assay; format: cell-based, human; details: for CD62P EC50/CD69 EC50 ratio Geomean: whole blood from healthy donors, platelets to CD4+ T cells
Protocol: We developed a novel human whole blood assay to determine whether other PKC agonists also activate platelets at the same concentrations that are required to activate CD4^+ T cells. Platelet activation was assessed by CD62P (P-selectin), which traffics to the cell surface upon activation and α-granule release. CD4^+ T-cell activation was assessed by CD69 upregulation (Fig 7A).
Whole blood was drawn into sodium citrate tubes using a 21-gauge needle. To prevent potential interference from tissue thromboplastin released during venipuncture, which could affect the accuracy of coagulation testing, the first 2 mL of blood drawn was discarded. PKC agonist molecules were dispensed in a dilution series into 80 μL of blood per well in a flat-bottom 96-well plate and mixed gently. Care was taken not to introduce any mechanical stress-related activation of platelets. […] The remaining 72 μL of blood in the first plate was incubated for 1 additional hour and stained with anti-human CD3 (UCHT1), CD4 (SK3), and CD69 (FN50) (30 minutes in the dark). Red blood cell lysis and fixing was done using BD lyse/fix solution. Stained cells were acquired on BD LSR Fortessa II after washing. […] EC50 values for platelet and CD4 T-cell activation for each agonist was obtained by nonlinear regression curve fit using GraphPad Prism version 9.3.0.

| Structure (SMILES) | pEC50 ([1]; read-out: EC50, activation of HIV expression) | pEC50 (PKC-ε) | ε selectivity, PKC-ε (PKC-ε) | PK plasma profile (Plasma PK in rats; 0.1, 0.3, 1, and 3 mg/kg) | CD62P EC50/CD69 EC50 ratio Geomean [2] | HIV RNA Fold over DMSO Geo.mean ([1]; 1.1 μM (Fig 10C)) | pEC50 ([1]; 72 h, read-out: HIV RNA EC50) | more potent for PKC-ε translocation compared with PKC-η and PKC-θ (PKC-ε; A549-PKC-tGFP reporter cells) | more potent for PKC-ε translocation than PKC-δ (PKC-ε; A549-PKC-tGFP reporter cells) [fold] | PK profile (Plasma PK in rats; 1, 3, and 10 mg/kg, n = 3 male rats/group) | more potent for T-cell activation relative to platelet activation ([2]; whole blood) [fold] | improvement relative to the other classes of PKC agonists tested ([2]; whole blood, T-cell versus platelet potency) |
| --- | --- | --- | --- | --- | --- | --- | --- | --- | --- | --- | --- | --- |
| Cc1ccc(C#Cc2ccc3oc(CC(C)(C)C(=O)OCC4(CO)CC(=CCC(CC(C)C)CC(C)C)C(=O)O4)cc3c2)cc1 (stereo not drawn) [C-232A] | 6.30 | 7.24 | 1 | dose-dependent C-232A PK plasma profiles | 1.7 | – | – | – | – | – | – | – |
| Cc1ccc(C#Cc2ccc(C(=O)OCC3(CO)Cc4c(-c5ccccc5)ccnc4O3)cc2)cc1 (stereo not drawn) [C-233] | – | 6.62 | 1 | – | 5.1 | 9.2 fold and 9 fold | 6.53 | 5- to 6 fold | ~200 | Dose-dependent increases in the PK profile | 5 | 2.4- to 3 fold |

Reference: article PMC11801715, “Activating PKC-ε induces HIV expression with improved tolerability” (PLOS Pathogens, 2025)
